Data from patent USRE32311E.
≈ marks a conversion by molar mass, not a printed value.

Legend:
[1] = system: Staphylococcus aureus X400; test: agar-dilution MIC; type: cell-based; conditions: Staphylococcus aureus X400, methicillin-resistant strain
Procedure: (§1) In Table VII activity is measured by the minimal inhibitory concentration (MIC), i.e. the lowest concentration of compound at which growth of the microorganism is inhibited by the test compound.

[2] = system: Streptococcus pyogenes C203; test: agar-dilution MIC; type: cell-based
Procedure: as §1

[3] = system: Streptococcus Group D X66; test: agar-dilution MIC; type: cell-based
Procedure: as §1

[4] = system: Streptococcus Group D 9960; test: agar-dilution MIC; type: cell-based
[5] = system: Staphylococcus aureus V41; test: agar-dilution MIC; type: cell-based; conditions: Staphylococcus aureus V41, penicillin-resistant strain
Procedure: as §1

Streptococcus pyogenes = test: experimental bacterial infection in mice, ED50; type: in vivo; conditions: two doses
[6] = system: Staphylococcus aureus X1.1; test: agar-dilution MIC; type: cell-based
Staphylococcus aureus = test: experimental bacterial infection in mice, ED50; type: in vivo; conditions: two doses
[7] = system: Staphylococcus epidermidis EP12; test: agar-dilution MIC; type: cell-based
Procedure: as §1

[8] = system: Staphylococcus epidermidis EP11; test: agar-dilution MIC; type: cell-based
Procedure: as §1

toxicity, LD50 in mice = type: in vivo; conditions: administered intravenously
[9] = system: Streptococcus pneumoniae Park I; type: cell-based; conditions: agar dilution
Procedure: as §1

Structure (SMILES): CCCCCCCCC(=O)N[C@@H](Cc1ccccc1)C(=O)N[C@@H](Cc1c[nH]c2ccccc12)C(=O)N[C@H](CC(N)=O)C(=O)N[C@@H](CC(=O)O)C(=O)N[C@@H]1C(=O)NCC(=O)N[C@@H](CCCN)C(=O)N[C@@H](CC(=O)O)C(=O)N[C@H](C)C(=O)N[C@@H](CC(=O)O)C(=O)NCC(=O)N[C@H](CO)C(=O)N[C@@H]([C@H](C)CC(=O)O)C(=O)N[C@@H](CC(=O)c2ccccc2N)C(=O)O[C@@H]1C [Compound 18]
- MIC [1]: 4 µg/mL (≈ 2.28 µM)
- MIC [2]: 0.5 µg/mL (≈ 0.285 µM)
- MIC [3]: 32 µg/mL (≈ 18.2 µM)
- MIC [4]: 8 µg/mL (≈ 4.56 µM)
- MIC [5]: 2 µg/mL (≈ 1.14 µM)
- ED50 Streptococcus pyogenes Oral (Streptococcus pyogenes): 184 mg/kg × 2
- ED50 Streptococcus pyogenes Subcutaneous (Streptococcus pyogenes): 0.59 mg/kg × 2
- MIC [6]: 2 µg/mL (≈ 1.14 µM)
- ED50 Staphylococcus aureus Subcutaneous (Staphylococcus aureus): 1.38 mg/kg × 2
- MIC [7]: 2 µg/mL (≈ 1.14 µM)
- MIC [8]: 4 µg/mL (≈ 2.28 µM)
- LD50 in Mice (toxicity, LD50 in mice): > 600 mg/kg

Structure (SMILES): CCCCCCCCCC(=O)N[C@@H](Cc1ccccc1)C(=O)N[C@@H](Cc1c[nH]c2ccccc12)C(=O)N[C@H](CC(N)=O)C(=O)N[C@@H](CC(=O)O)C(=O)N[C@@H]1C(=O)NCC(=O)N[C@@H](CCCN)C(=O)N[C@@H](CC(=O)O)C(=O)N[C@H](C)C(=O)N[C@@H](CC(=O)O)C(=O)NCC(=O)N[C@H](CO)C(=O)N[C@@H]([C@H](C)CC(=O)O)C(=O)N[C@@H](CC(=O)c2ccccc2N)C(=O)O[C@@H]1C [Compound 19, NTrp-[N-(n-Decanoyl)-L-phenylalanyl]-A-21978C Nucleus]
- MIC [1]: 1 µg/mL (≈ 0.566 µM)
- MIC [2]: 0.25 µg/mL (≈ 0.141 µM)
- MIC [3]: 8 µg/mL (≈ 4.53 µM)
- MIC [4]: 2 µg/mL (≈ 1.13 µM)
- MIC [5]: 0.5 µg/mL (≈ 0.283 µM)
- MIC [9]: 0.75 µg/mL (≈ 0.424 µM)
- ED50 Streptococcus pyogenes Oral (Streptococcus pyogenes): > 200 mg/kg × 2
- ED50 Streptococcus pyogenes Subcutaneous (Streptococcus pyogenes): 0.39 mg/kg × 2
- MIC [6]: 0.5 µg/mL (≈ 0.283 µM)
- MIC [7]: 0.5 µg/mL (≈ 0.283 µM)
- MIC [8]: 1 µg/mL (≈ 0.566 µM)
- LD50 in Mice (toxicity, LD50 in mice): 600 mg/kg

Structure (SMILES): CCCCCCCCCCC(=O)N[C@@H](Cc1ccccc1)C(=O)N[C@@H](Cc1c[nH]c2ccccc12)C(=O)N[C@H](CC(N)=O)C(=O)N[C@@H](CC(=O)O)C(=O)N[C@@H]1C(=O)NCC(=O)N[C@@H](CCCN)C(=O)N[C@@H](CC(=O)O)C(=O)N[C@H](C)C(=O)N[C@@H](CC(=O)O)C(=O)NCC(=O)N[C@H](CO)C(=O)N[C@@H]([C@H](C)CC(=O)O)C(=O)N[C@@H](CC(=O)c2ccccc2N)C(=O)O[C@@H]1C [Compound 20]
- MIC [1]: 2 µg/mL (≈ 1.12 µM)
- MIC [3]: 4 µg/mL (≈ 2.24 µM)
- MIC [4]: 2 µg/mL (≈ 1.12 µM)
- MIC [5]: 0.5 µg/mL (≈ 0.281 µM)
- ED50 Streptococcus pyogenes Oral (Streptococcus pyogenes): > 200 mg/kg × 2
- ED50 Streptococcus pyogenes Subcutaneous (Streptococcus pyogenes): 0.35 mg/kg × 2
- MIC [6]: 0.5 µg/mL (≈ 0.281 µM)
- ED50 Staphylococcus aureus Subcutaneous (Staphylococcus aureus): 1.25 mg/kg × 2
- MIC [7]: 2 µg/mL (≈ 1.12 µM)
- MIC [8]: 2 µg/mL (≈ 1.12 µM)
- LD50 in Mice (toxicity, LD50 in mice): 400 mg/kg

Structure (SMILES): CCCCCCCCCCCCC(=O)N[C@@H](Cc1ccccc1)C(=O)N[C@@H](Cc1c[nH]c2ccccc12)C(=O)N[C@H](CC(N)=O)C(=O)N[C@@H](CC(=O)O)C(=O)N[C@@H]1C(=O)NCC(=O)N[C@@H](CCCN)C(=O)N[C@@H](CC(=O)O)C(=O)N[C@H](C)C(=O)N[C@@H](CC(=O)O)C(=O)NCC(=O)N[C@H](CO)C(=O)N[C@@H]([C@H](C)CC(=O)O)C(=O)N[C@@H](CC(=O)c2ccccc2N)C(=O)O[C@@H]1C [Compound 21]
- MIC [1]: 2 µg/mL (≈ 1.11 µM)
- MIC [3]: 1 µg/mL (≈ 0.553 µM)
- MIC [4]: 0.25 µg/mL (≈ 0.138 µM)
- MIC [5]: 0.5 µg/mL (≈ 0.276 µM)
- ED50 Streptococcus pyogenes Oral (Streptococcus pyogenes): > 200 mg/kg × 2
- ED50 Streptococcus pyogenes Subcutaneous (Streptococcus pyogenes): 0.14 mg/kg × 2
- MIC [6]: 0.5 µg/mL (≈ 0.276 µM)
- ED50 Staphylococcus aureus Subcutaneous (Staphylococcus aureus): 0.76 mg/kg × 2
- MIC [7]: 2 µg/mL (≈ 1.11 µM)
- MIC [8]: 2 µg/mL (≈ 1.11 µM)

Structure (SMILES): CCCCCCCCCCC(=O)N[C@@H](Cc1ccccc1)C(=O)NCCC[C@@H]1NC(=O)CNC(=O)[C@@H](NC(=O)[C@H](CC(=O)O)NC(=O)[C@@H](CC(N)=O)NC(=O)[C@@H](N)Cc2c[nH]c3ccccc23)[C@@H](C)OC(=O)[C@H](CC(=O)c2ccccc2N)NC(=O)[C@H]([C@H](C)CC(=O)O)NC(=O)[C@@H](CO)NC(=O)CNC(=O)[C@H](CC(=O)O)NC(=O)[C@@H](C)NC(=O)[C@H](CC(=O)O)NC1=O [Compound 26]
- MIC [2]: 1 µg/mL (≈ 0.561 µM)
- MIC [4]: 32 µg/mL (≈ 18 µM)
- ED50 Streptococcus pyogenes Oral (Streptococcus pyogenes): > 200 mg/kg × 2
- ED50 Streptococcus pyogenes Subcutaneous (Streptococcus pyogenes): > 18 mg/kg × 2
- MIC [6]: 8 µg/mL (≈ 4.49 µM)
- ED50 Staphylococcus aureus Subcutaneous (Staphylococcus aureus): 9.2 mg/kg × 2

Structure (SMILES): CCCCCC(=O)N[C@@H](Cc1c[nH]c2ccccc12)C(=O)NCCC[C@@H]1NC(=O)CNC(=O)[C@@H](NC(=O)[C@H](CC(=O)O)NC(=O)[C@@H](CC(N)=O)NC(=O)[C@H](Cc2c[nH]c3ccccc23)NC(=O)CCCCCCCCC(C)CC)[C@@H](C)OC(=O)[C@H](CC(=O)c2ccccc2N)NC(=O)[C@H]([C@H](C)CC(=O)O)NC(=O)[C@@H](CO)NC(=O)CNC(=O)[C@H](CC(=O)O)NC(=O)[C@@H](C)NC(=O)[C@H](CC(=O)O)NC1=O (some centres unmarked) [Compound 29]
- MIC [1]: 1 µg/mL (≈ 0.514 µM)
- MIC [3]: 8 µg/mL (≈ 4.11 µM)
- MIC [4]: 32 µg/mL (≈ 16.4 µM)
- ED50 Streptococcus pyogenes Oral (Streptococcus pyogenes): > 200 mg/kg × 2
- LD50 in Mice (toxicity, LD50 in mice): 37.5 mg/kg
